Common to all, as to format: cell-based
One experiment relates to HeLa cell line. Briefly: 3H-nucleoside uptake inhibition by BAs in HeLa cell line. To be noted: BA 100 μM; for % Inhibition of Ado uptake, HeLa cell line, Sodium buffer / % Inhibition of Ado uptake, HeLa cell line, Sodium-free buffer: 3H-Ado 0.02 μM; for extent of inhibition of guanosine transport, HeLa cells: 3H-guanosine 0.02 μM, Na+-free. On the procedure:
(§1) The bars represent the mean ± SD (n = 3). A representative experiment from 3 to 5 independent experiments is presented. Statistical analysis was performed using one-way ANOVA with Dunnett’s multiple comparisons test; ∗p < 0.032, ∗∗p < 0.0021, ∗∗∗p < 0.0002.
(§2) HeLa (CCL-2) and HepG2 (HB_8065) were procured from ATCC. Both cell lines were cultured in Eagle's minimum essential medium and Dulbecco's modified Eagle's medium, respectively, supplemented with 10% fetal bovine serum and penicillin-streptomycin (1X). After cells were tested free for mycoplasma contamination, they were plated in 24-well plates, and transport assays were conducted when the cells were 80% confluent. The cells were briefly rinsed with PBS, and then the uptake of radiolabeled substrates was measured after a 5 min incubation in sodium containing (130 mM NaCl, 20 mM Tris–HCl, 3 mM K2HPO4, 1 mM MgCl2.6H2O, 2 mM CaCl2, 5 mM glucose, pH 7.4) or sodium-free (130 mM N-methyl-D-glucamin, 20 mM Tris–HCl, 3 mM K2HPO4, 1 mM MgCl2.6H2O, 2 mM CaCl2, 5 mM glucose, pH 7.4) transport buffers at 37 °C. Uptake was terminated by washing the cells three times with ice-cold arrest buffer containing 20 mM uridine. The cells were shaken for 30 min in 10% SDS for complete dissolution, after which the radioactivity was quantified with a Beckman liquid scintillation counter. The data are presented as the mean ± SD (n = 3).

For a further experiment, the system named is HepG2 cell line. Nature of the experiment: 3H-nucleoside uptake inhibition by BAs in HepG2 cell line. The settings on record: BA 100 μM; for % Inhibition of Ado uptake, HepG2 cell line, Sodium buffer / % Inhibition of Ado uptake, HepG2 cell line, Sodium-free buffer: 3H-Ado 0.02 μM; for extent of inhibition of guanosine transport, HepG2 cells: 3H-guanosine 0.02 μM, Na+-free.
From the text: In the presence of multiple substrates with similar affinities, the abundant substrate molecules can compete for binding to the transport sites, reducing the transport of the limiting substrate molecules ([31]). […] We tested the possibility of BA-mediated nucleoside transport inhibition using a HeLa cell line (expressing ENTs (ENT1, ENT2) ([32])) and a HepG2 cell line (expressing both ENTs (ENT1, ENT2) and CNTs (CNT1, CNT2) ([33])) to conduct Ado uptake inhibition assays in Na^+-containing (where both ENTs and CNTs are capable of transport) and Na^+-free (only ENTs are capable of transport) buffers (Fig. 3 and Table 1).
as §1, §2

For the next experiment, the target named is T1, ENT2 (Homo sapiens, UniProt Q14542).
T1 sequence (Q14542 1-456): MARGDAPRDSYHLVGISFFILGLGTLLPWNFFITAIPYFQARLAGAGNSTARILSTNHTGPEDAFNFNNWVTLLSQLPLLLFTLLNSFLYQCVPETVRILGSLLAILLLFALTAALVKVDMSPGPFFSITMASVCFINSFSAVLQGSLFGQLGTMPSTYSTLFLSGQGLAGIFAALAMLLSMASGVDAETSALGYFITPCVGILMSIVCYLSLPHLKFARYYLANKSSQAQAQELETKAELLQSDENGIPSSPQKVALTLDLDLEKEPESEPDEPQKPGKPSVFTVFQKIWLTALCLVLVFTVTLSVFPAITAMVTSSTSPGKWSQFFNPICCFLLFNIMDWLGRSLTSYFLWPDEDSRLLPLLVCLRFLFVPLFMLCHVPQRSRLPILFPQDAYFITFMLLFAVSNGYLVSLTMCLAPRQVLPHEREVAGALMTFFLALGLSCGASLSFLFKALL
Nature of the experiment: Inhibition of 3H-nucleoside influx by BAs in ENT2-expressing Xenopus oocytes. On the set-up: expressed in transfected cells; host or cells: Xenopus laevis oocytes injected with in vitro-transcribed capped mRNA from pOX-hENT2. The text has this: We expressed individual ENTs (ENT1, ENT2, and ENT3) in X. laevis oocytes (as described above) and analyzed the Ado influx from each of the ENTs in the presence of different BAs to better understand whether the inhibition profiles differ across human ENTs. […] We also conducted an analysis of the concentration-dependent inhibition of Ado transport to estimate the IC50 values of the BAs (Fig. 4, D–F and Table 2).
Inhibition of Ado influx in H2O- and ENT-injected oocytes by treatment with different BAs at 100 μM. D–F, concentration-dependent inhibition of Ado influx in ENT-injected oocytes by different BAs. The bars represent the mean ± SD (n = 8–12 oocytes). A representative experiment from 3 to 5 independent experiments is presented. Statistical analysis was performed using one-way ANOVA with Dunnett’s multiple comparisons test; ∗p < 0.032, ∗∗p < 0.0021, ∗∗∗∗p < 0.0001.
The generated pOX expression constructs were linearized with either the Not1 or Sac1 restriction enzymes. The digested products were purified via phenol‒chloroform extraction. The mRNAs were synthesized using mMESSAGE mMACHINE (Ambion) transcription kits according to the manufacturer’s instructions. The mRNAs were purified via lithium precipitation. Oocytes were procured from Ecocyte. Prior to experiments, procured oocytes were defolliculated by treating with collagenase A-OR II solution followed by washing with Barth’s solution. Following microscopic verification, selected oocytes were incubated to recover overnight at 25 °C in a shaker incubator. Fifty nanoliters (400–800 ng/μl) of equal amounts of mRNAs were injected into defolliculated oocytes the next day. Expression of plasmids was analyzed after RNA isolation from oocyte extracts and conducting qPCR analysis with gene-specific primers as described earlier ([30]). The injected oocytes were incubated at 15 °C for 24 h before transport assays were performed. […] Uptake was terminated by washing the oocytes three times with arrest buffer containing 20 mM uridine. Individual oocytes were shaken overnight in 10% SDS for complete dissolution, and then the radioactivity was quantified with a Beckman liquid scintillation counter. The data are presented as the mean ± SD (n = 8–12 oocytes). A representative experiment from 3 to 5 independent experiments is presented.

The mark [1] stands for this setting: 3H-Ado 20 μM, sodium-free buffer, read-out: ENT2 IC50 (Ado uptake).
Where [2] appears, read: BA 100 μM, 3H-Ado 20 μM, sodium-free buffer.

“And” between values parts separate entries of the source, which are not always exact repeats. Equal values may be shown once. Read-outs that look alike come from different tables or passages of the source.

With `C[C@H](CCC(=O)O)[C@H]1CC[C@H]2[C@@H]3CC[C@@H]4C[C@H](O)CC[C@]4(C)[C@H]3C[C@H](O)[C@]12C` [DCA, deoxycholic acid], in the experiment with HeLa cell line, the “% Inhibition of Ado uptake, HeLa cell line, Sodium buffer” value was 41.33 ± 0.10%; the “% Inhibition of Ado uptake, HeLa cell line, Sodium-free buffer” value is given as 67.86 ± 1.67%; the “extent of inhibition of guanosine transport, HeLa cells” value (“extent of inhibition … HeLa cells” below) came to 0%. Further, in the experiment with HepG2 cell line, the “% Inhibition of Ado uptake, HepG2 cell line, Sodium buffer” value is reported as “n.s”; the “% Inhibition of Ado uptake, HepG2 cell line, Sodium-free buffer” value is 49.36 ± 0.02%; the “extent of inhibition of guanosine transport, HepG2 cells” value (“extent of inhibition … HepG2 cells” for short) is on record as 12%. Besides, at ENT2 (setting [1]), the IC50 came out at 0.9 ± 0.2 µM. The “ENT2 % uptake inhibition (Ado)” value on ENT2 (setting [2]) was 65% and 64.77%. Moreover, on ENT2 (BA 100 μM, 3H-guanosine 20 μM), the “inhibition of guanosine transport mediated by ENT2” value was “not statistically significant”. Moreover, at ENT2 (BA 100 μM, 3H-uridine 20 μM), the “inhibition of ENT2-mediated uridine uptake” value is reported as “inhibition of the ENT2-mediated uridine uptake”.
`C[C@H](CCC(=O)NCCS(=O)(=O)O)[C@H]1CC[C@H]2[C@@H]3[C@H](O)C[C@@H]4C[C@H](O)CC[C@]4(C)[C@H]3C[C@H](O)[C@]12C` [TCA, taurocholic acid]: in the experiment on HeLa cell line, the “% Inhibition of Ado uptake, HeLa cell line, Sodium buffer” value came out at 59.20 ± 0.31%; the “% Inhibition of Ado uptake, HeLa cell line, Sodium-free buffer” value is reported as 67.21 ± 0.08%; the “extent of inhibition … HeLa cells” value is 0%. In the experiment with HepG2 cell line, the “% Inhibition of Ado uptake, HepG2 cell line, Sodium buffer” value is “n.s”; the “% Inhibition of Ado uptake, HepG2 cell line, Sodium-free buffer” value worked out at 62.36 ± 0.03%; the “extent of inhibition … HepG2 cells” value was determined as 17.5%. 19.5 ± 4.5 µM corresponded to half-maximal inhibition at ENT2 (IC50). For the same compound, at ENT2 (setting [2]), the “ENT2 % uptake inhibition (Ado)” value stood at 70.68%.
As for `C[C@H](CCC(=O)O)[C@H]1CC[C@H]2[C@@H]3[C@H](O)C[C@@H]4C[C@H](O)CC[C@]4(C)[C@H]3C[C@H](O)[C@]12C` [CA, cholic acid], in the experiment with HeLa cell line, the “% Inhibition of Ado uptake, HeLa cell line, Sodium buffer” value worked out at 52.17 ± 0.51%; the “% Inhibition of Ado uptake, HeLa cell line, Sodium-free buffer” value was 48.8% and 48.78 ± 0.52%; the “extent of inhibition … HeLa cells” value is 16.1%. In the experiment with HepG2 cell line, the “% Inhibition of Ado uptake, HepG2 cell line, Sodium buffer” value is listed as “n.s”; the “% Inhibition of Ado uptake, HepG2 cell line, Sodium-free buffer” value is on record as 59.86 ± 0.19%; the “extent of inhibition … HepG2 cells” value stood at 12%. The IC50 at ENT2 (setting [1]) was 7.1 ± 1.6 µM. Also, the “ENT2 % uptake inhibition (Ado)” value on ENT2 (setting [2]) is listed as 74.58%.

As a reminder, the IC50 is the point on the concentration scale where inhibition reaches its midpoint.

These data come from article PMC12152883, “Bile acids inhibit equilibrative adenosine transport to alter adenosine receptor signaling in cholestasis” (The Journal of Biological Chemistry, 2025).
